Data reported in US8158656B2, “2-indolinone derivatives as multi-target protein kinase inhibitors and histone deacetylase inhibitors” (Shenzhen Chipscreen Biosciences Ltd., priority 2008, dated 2012).

Legend:
c-Kit = target: T1, c-Kit (Homo sapiens, UniProt P10721); assay: c-KIT kinase ELISA bioassay; format: biochemical; conditions: ELISA kinase assay, 20 μM ATP
T1 construct: purchased Cell Signaling
Method: This assay is used to measure in vitro kinase activity of c-KIT in an ELISA assay.
• 1. Streptavidin coated, 96-well, white plate • 2. Phospho-Tyrosine Monoclonal Antibody (P-Tyr-100) (Cell Signaling) • 3. HRP-labeled anti-mouse IgG (Upstate) • 4. HTScan™ Tyrosine Kinase Buffer (4×) • 5. DTT (1000×. 1.25 M) • 6. ATP (10 mM) • 7. KDR (Tyr996) Biotinylated Peptide Substrate (Cell Signaling) • 8. c-KIT Kinase (recombinant, human) (Cell Signaling) • 9. Wash Buffer: 1× PBS, 0.05% Tween-20 (PBS/T) • 10. Bovine Serum Albumin (BSA) • 11. Stop Buffer: 50 mM EDTA pH 8 • 12. Enhanced chemiluminescence (ECL) (Amersham) Procedure for performing the assay in 96-well plate: • 1. Add 10 μl 10 mM ATP to 1.25 ml 6 μM substrate peptide. Dilute the mixture with dH20 to 2.5 ml to make 2× ATP/substrate cocktail ([ATP]=40 μM, [substrate]=3 μm). • 2. Immediately transfer enzyme from −80° C. to ice. Allow enzyme to thaw on ice. • 3. Microcentrifuge briefly at 4° C. to bring liquid to the bottom of the vial. Return immediately to ice. • 4. Add 10 μl of DTT (1.25 M) to 2.5 ml of 4× HTScan™ Tyrosine Kinase Buffer (240 mM HEPES pH 7.5, 20 mM MgCl2, 20 mM MnCl2, 12 μM Na3VO4) to make DTT/Kinase buffer. • 5. Transfer 1.25 ml of DTT/Kinase buffer to enzyme tube to make 4× reaction cocktail ([enzyme]=4 ng/μL in 4× reaction cocktail). • 6. Incubate 12.5 μl of the 4× reaction cocktail with 12.5 μl/well of prediluted compound of interest (usually around 10 μM) for 5 minutes at room temperature. • 7. Add 25 μl of 2× ATP/substrate cocktail to 25 μl/well preincubated reaction cocktail/compound. Final Assay Conditions for a 50 μl Reaction: • 60 mM HEPES pH 7.5 • 5 mM MgCl2 • 5 mM MnCl2 • 3 μM Na3VO4 • 1.25 mM DTT • 20 μM ATP • 1.5 μM peptide • 100 ng c-KIT Kinase • 8. Incubate reaction plate at room temperature for 30 minutes. • 9. Add 50 μl/well Stop Buffer (50 mM EDTA, pH 8) to stop the reaction. • 10. Transfer 25 μl of each reaction and 75 μl dH2O/well to a 96-well streptavidincoated plate and incubate at room temperature for 60 minutes. • 11. Wash three times with 200 μl/well PBS/T • 12. Dilute primary antibody, Phospho-Tyrosine Monoclonal Antibody (P-Tyr-100), 1:1000 in PBS/T with 1% BSA. Add 100 μl/well of primary antibody. • 13. Incubate at room temperature for 60 minutes. • 14. Wash three times with 200 μl/well PBS/T • 15. Dilute HRP labeled anti-mouse IgG 1:500 in PBS/T with 1% BSA. Add 100 μl/well diluted antibody. • 16. Incubate at room temperature for 30 minutes. • 17. Wash five times with 200 μl/well PBS/T. • 18. Add 100 μl/well ECL Solution. • 19. Detect luminescence with appropriate Plate Reader. Flt3 Bioassay

Class I HDAC = assay: P21 reporter assay in HeLa cells; format: cell-based, human; conditions: relative to CS055 at 3 μM
Method: (§1) HDAC subtype selectivity inhibition assay of tested compounds was carried out by several reporter gene assays experiments. Briefly, HeLa cells were seeded in 96-well plates the day before transfection to give a confluence of 50-80%. Cells were transfected with one of reporter gene plasmid containing a promoter sequence or response element upstream of a luciferase gene construct using FuGene6 transfection reagent according to the manufacturer's instruction (Roche). The promoters or response elements including p21-promoter, gdf11-promoter, MEF-binding element (MEF2), Nur77-promoter were fused upstream to the luciferase gene reporter construct. For normalizing the transfection efficiency, a GFP expression plasmid was cotransfected. Cells were allowed to express protein for 24 hours followed by addition of individual compounds or the vehicle (DMSO). 24 hours later the cells were harvested, and the luciferase assay and GFP assay were performed using corresponding assay kits according to the manufacturer's instructions (Promega).

HDAC7 = target: T2, HDAC7 (Homo sapiens, UniProt Q8WUI4); assay: Nur77 reporter assay in HeLa cells; format: cell-based; conditions: relative to CS055 at 3 μM
T2 construct: endogenous in cells; host or cells: HeLa
T2 sequence (Q8WUI4 1-952): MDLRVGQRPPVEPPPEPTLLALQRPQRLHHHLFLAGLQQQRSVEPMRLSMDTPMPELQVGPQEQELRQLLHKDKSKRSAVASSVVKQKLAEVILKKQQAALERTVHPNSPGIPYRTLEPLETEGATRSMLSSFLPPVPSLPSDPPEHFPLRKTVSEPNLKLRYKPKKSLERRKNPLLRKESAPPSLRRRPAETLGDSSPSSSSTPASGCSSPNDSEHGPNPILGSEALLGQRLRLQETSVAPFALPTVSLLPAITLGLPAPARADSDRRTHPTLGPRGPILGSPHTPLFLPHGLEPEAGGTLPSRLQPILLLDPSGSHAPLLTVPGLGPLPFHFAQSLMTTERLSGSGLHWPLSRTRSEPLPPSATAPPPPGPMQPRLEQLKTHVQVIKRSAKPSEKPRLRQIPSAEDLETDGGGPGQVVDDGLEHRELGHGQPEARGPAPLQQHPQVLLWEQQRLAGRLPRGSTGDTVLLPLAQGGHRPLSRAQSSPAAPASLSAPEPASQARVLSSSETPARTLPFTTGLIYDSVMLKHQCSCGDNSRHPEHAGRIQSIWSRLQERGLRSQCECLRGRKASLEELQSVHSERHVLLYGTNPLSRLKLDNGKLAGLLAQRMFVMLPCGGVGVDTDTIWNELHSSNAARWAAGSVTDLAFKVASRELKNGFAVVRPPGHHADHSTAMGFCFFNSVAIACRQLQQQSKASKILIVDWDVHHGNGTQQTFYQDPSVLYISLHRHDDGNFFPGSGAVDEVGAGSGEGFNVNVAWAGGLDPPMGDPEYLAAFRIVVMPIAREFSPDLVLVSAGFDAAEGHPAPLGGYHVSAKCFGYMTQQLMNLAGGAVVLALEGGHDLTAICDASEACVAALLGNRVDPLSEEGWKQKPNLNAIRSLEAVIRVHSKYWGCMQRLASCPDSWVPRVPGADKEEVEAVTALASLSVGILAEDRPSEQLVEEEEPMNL
Method: as §1

T1 sequence (P10721 26-976): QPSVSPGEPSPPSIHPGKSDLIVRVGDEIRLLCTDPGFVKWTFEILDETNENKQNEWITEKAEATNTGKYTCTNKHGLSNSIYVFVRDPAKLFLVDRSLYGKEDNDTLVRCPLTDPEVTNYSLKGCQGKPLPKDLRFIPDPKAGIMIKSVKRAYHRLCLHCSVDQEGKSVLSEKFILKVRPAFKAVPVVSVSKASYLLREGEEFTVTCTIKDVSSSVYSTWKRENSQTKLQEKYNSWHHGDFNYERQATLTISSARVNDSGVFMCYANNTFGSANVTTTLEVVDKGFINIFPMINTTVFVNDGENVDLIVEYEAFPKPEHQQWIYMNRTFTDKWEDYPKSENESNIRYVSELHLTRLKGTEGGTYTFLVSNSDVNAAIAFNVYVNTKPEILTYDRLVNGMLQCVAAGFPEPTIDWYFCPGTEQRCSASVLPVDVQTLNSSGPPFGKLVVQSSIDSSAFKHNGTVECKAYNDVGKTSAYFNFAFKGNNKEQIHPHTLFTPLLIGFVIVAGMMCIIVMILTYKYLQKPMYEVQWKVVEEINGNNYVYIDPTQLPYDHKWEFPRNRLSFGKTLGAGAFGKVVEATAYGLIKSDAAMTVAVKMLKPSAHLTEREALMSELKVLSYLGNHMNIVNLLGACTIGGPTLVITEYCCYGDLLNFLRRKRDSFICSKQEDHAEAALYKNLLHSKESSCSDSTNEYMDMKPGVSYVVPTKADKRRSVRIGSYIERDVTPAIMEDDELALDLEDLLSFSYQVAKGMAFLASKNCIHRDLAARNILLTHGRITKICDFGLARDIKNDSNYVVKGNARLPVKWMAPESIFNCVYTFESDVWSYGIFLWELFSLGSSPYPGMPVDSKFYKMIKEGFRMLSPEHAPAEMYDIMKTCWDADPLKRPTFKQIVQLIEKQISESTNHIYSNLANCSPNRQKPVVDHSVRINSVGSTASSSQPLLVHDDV

IC50 (c-Kit): 534 nM
HDAC7 (Nur77 reporter assay) % Max Resp of CS055 at 3 μM (HDAC7): 6.4%
SMILES: Cc1[nH]c(/C=C2\C(=O)Nc3ccc(F)cc32)c(C)c1C(=O)NCCNc1ccc(C(=O)Nc2ccc(F)cc2N)cn1 [Example 13, (Z)-N-(2-amino-4-fluorophenyl)-6-(2-(2-((5-fluoro-2-oxoindolin-3-ylidene)-methyl)-3,5-dimethyl-1H-pyrrole-4-carboxamido)ethylamino)nicotinamide]
Class I HDAC (P21 reporter assay) % Max Resp of CS055 at 3 μM (Class I HDAC): 2.1%
